Measured values from patent US11738001B2, “Pharmaceutical combinations and methods for the treatment of diabetes and associated disorders” (OTAGO INNOVATION LIMITED, priority 2017, dated 2023).

Columns and labels:
[1] = test system: diet-induced obese (DIO) mice; experiment: intraperitoneal glucose tolerance test (ipGTT), acute oral treatment (Experiments 1-5); format: in vivo, C57BL/6 mice; settings: HFD 4 weeks
Description: (§1) For all experiments, 12-14 weeks old male C57BL/6 mice were obtained from the University of Otago animal facility. All procedures were approved by the University of Otago Animal Ethics Committee. Mice were housed individually under a 12:12 h light/dark cycle and ambient temperature was 23° C. Animals had either access to low-fat diet (LFD, containing 10% fat; cat. no. D12450B; Research Diets) or high-fat diet (HFD, containing 60% fat; cat. No. D12492; Research Diets) for a duration of 4 weeks, and water ad libitum. For each experiment a new cohort of animals was employed.
For all experiments, the formulations were prepared by forming an ethanol solution of the selected active ingredient(s), i.e. B, I or S individually, the mix or the extract, and then diluting to the desired concentration with 0.9 wt % NaCl aqueous solution.
To investigate whether the compounds either individually, a mixture of all three compounds (B, S and I; hereinafter referred to as “mix”) or the total extract of yellow Dahlia ‘Ruskin Diane’ petals acutely affect glucose homeostasis, intraperitoneal glucose tolerance tests (ipGTTs) were performed in diet-induced obese (DIO) mice as a model to mimic human prediabetes and impairments in glucose metabolism. Individual compounds, the mix or the total extract were dissolved in 0.9% NaCl containing 5% ethanol and administered orally. Mice (n=7-8/group) were fed either a high fat diet (HFD) or respective low fat diet (LFD) for 4 weeks, fasted for 16 h and received the different compounds/combinations or vehicle (0.9% NaCl containing 5% ethanol) by oral gavage. For example, for administration to a 50 g mouse, an oral gavage having a volume of 500 μl was prepared, the oral gavage contained 500 μg of extract or 50 μg of compound(s). The volume of the gavage administered was adjusted based on the weight of the mouse subject. Glucose (1.5 g/kg body weight; dissolved in 0.9% NaCl) was injected intraperitoneally (i.p.) 60 minutes after oral gavage treatment, and an ipGTT was performed. Blood glucose levels were measured using a commercially available glucometer (Accu-Check Performa; Roche) whilst truncating the tip of the tail with a fresh scalpel blade. For statistical validation, the area under the curve (AUC) was calculated.
These experiments establish dose responses of the individual compounds using different concentrations (20, 10, 3.3, 1, 0.33 mg/kg body weight), the mix (20, 10, 3.3, 1, 0.33 mg/kg body weight) or the extract (50, 20, 10, 3.3, 1 mg/kg) to determine the highest non-effective dose to allow for testing of synergism in combination with commercially available diabetes drugs in subsequent experiments. Mice were fed either LFD or HFD 4 weeks (Experiments 4 and 5). After mice were food deprived for 16 hours, an pGTT was carried out as previously described.
(§2) Data were analysed by one-way ANOVA or repeated measures ANOVA followed by multiple comparison test, as appropriate, using GraphPad Prism 5 software (Graphpad Software, Inc.). The results are presented as means ±SEM, and differences were considered significant if p≤0.05.

[2] = stability of extract and butein in vitro (RPLC); format: physicochemical
Description: Experiments were carried out on dissolving/dispersing Dahlia ‘Ruskin Diane’ extract into aqueous buffer. […] To confirm the cause of instability of the buffered extract, the stability of butein was assessed in aqueous buffer at pH7 (butein was stable at pH4). […] By contrast, butein was stable when diluted into EtOH and stored under ambient conditions (FIG. 16). […] The conversion of butein to sulfuretin is an oxidative cyclisation.

[3] = solubility; format: physicochemical; settings: pH7 buffer solution
[4] = test system: diet-induced obese (DIO) mice; experiment: ipGTT after chronic metformin or pramlintide, alone or combined with the mix (Experiments 6-9); format: in vivo, C57BL/6 mice
Description: as §1
Separate cohorts of mice were treated with the respective control injections. Mice were fasted for 16 h and an ipGTT was performed as described.
After chronic treatment with the well described antidiabetic drugs mice were fasted for 16 h and received the mix acutely (0.33 mg/kg; containing 5% ethanol). 60 minutes later we carried out an ipGTT as described previously.
as §2

[5] = test system: phosphorylation of AKT (pAKT); experiment: central insulin signalling: pAKT immunoreactive cells in the arcuate nucleus (Experiment 10); format: in vivo, C57BL/6 mice; settings: insulin 1 mg/kg 15 min before perfusion; LFD and HFD fed mice vs vehicle-injected
Description: To identify a mode of action of how the compounds, formulations and the extract affect glucose homeostasis, effects on central insulin signalling by measuring phosphorylation of AKT (pAKT) were investigated. AKT is the main target of insulin in the arcuate nucleus of the hypothalamus. To assess the degree of insulin action in the hypothalamus, phosphorylated AKT positive cells were counted. Mice were fed LFD or HFD for 4 weeks, fasted for 16 h and bodyweight matched. Sixty minutes before transcardial perfusion they received B (10 mg/kg), I (10 mg/kg), S (10 mg/kg), the mix (3.3 mg/kg of each compound), the extract (10 mg/kg) or vehicle (0.9% NaCl containing 5% ethanol) by oral gavage. Additionally, mice received an insulin (1 mg/kg) or vehicle injection 15 minutes before transcardial perfusion. Immunohistochemistry was carried out on mouse brain coronal cryosections as described previously in Benzler J, et al. Diabetes. […]
To investigate the molecular mechanisms and to identify the molecular targets of the mix and the extract, mice were fed either a HFD or LFD for 4 weeks followed by treatment with the mix (3.3 mg/kg body weight each) or the extract (10 mg/kg) acutely by oral gavage. […] The target protein of the insulin signalling pathway, pAKT, was visualized by immunohistochemistry and quantified by counting pAKT immunoreactive cells.

[6] = Experiment 1: 10 mg/kg (mix: 3.3 mg/kg of each compound) oral gavage 1 h before ipGTT, vs HFD control
[7] = Experiment 3: 3.3 mg/kg (each) orally 1 h before ipGTT

O=C(/C=C/c1ccc(O)c(O)c1)c1ccc(O)cc1O [B, Butein]
glucose tolerance in ipGTT [1, 6]: did not improve glucose tolerance | glucose tolerance in ipGTT ([1]; Experiment 2: 3.3 mg/kg of each compound orally 1 h before ipGTT, vs vehicle treated HFD mice): no effect on glucose tolerance | stability ([2]; EtOH or DMSO solutions diluted into aqueous buffer at pH7, room temperature): linear (zero order kinetics) conversion of butein to sulfuretin over time | stability ([2]; aqueous buffer pH4): stable | rate of conversion to sulfuretin ([2]; attempts to exclude oxygen): slowed the reaction | stability ([2]; diluted into EtOH and stored under ambient conditions): stable | rate of conversion to sulfuretin ([2]; excluding light and adding a radical inhibitor): no effects on reaction rate | solubility [3]: limited solubility

O=C(/C=C/c1ccc(O)cc1)c1ccc(O)cc1O [I, Isoliquiritigenin]
glucose tolerance in ipGTT [1, 6]: trend towards an improved glucose homeostasis | glucose tolerance in ipGTT [1, 7]: improved glucose tolerance | stability (concentration over time) [2]: decreased in concentration much more slowly

O=C1/C(=C/c2ccc(O)c(O)c2)Oc2cc(O)ccc21 [S, Sulfuretin]
glucose tolerance in ipGTT [1, 6]: significantly improve glucose tolerance | glucose tolerance in ipGTT [1, 7]: improved glucose tolerance

CN(C)C(=N)N=C(N)N [metformin]
glucose tolerance in ipGTT ([4]; Experiment 6: 300 mg/kg/d oral, twice daily, last 7 days, p=0.004 vs HFD control): improved glucose tolerance | highest dose that did not improve glucose tolerance ([4]; Experiment 6: oral gavage twice daily for last 7 days, HFD 4 weeks): 100 mg/kg body weight

CC[C@H](C)[C@H](NC(=O)[C@@H]1CCCN1C(=O)CNC(=O)[C@H](Cc1ccccc1)NC(=O)[C@H](CC(N)=O)NC(=O)[C@H](CC(N)=O)NC(=O)[C@H](CO)NC(=O)[C@H](CO)NC(=O)[C@H](Cc1c[nH]cn1)NC(=O)[C@@H](NC(=O)[C@H](CC(C)C)NC(=O)[C@H](Cc1ccccc1)NC(=O)[C@H](CC(N)=O)NC(=O)[C@H](C)NC(=O)[C@H](CC(C)C)NC(=O)[C@H](CCCNC(=N)N)NC(=O)[C@H](CCC(N)=O)NC(=O)[C@@H](NC(=O)[C@H](C)NC(=O)[C@@H]1CSSC[C@H](NC(=O)[C@@H](N)CCCCN)C(=O)N[C@@H](CC(N)=O)C(=O)N[C@@H]([C@@H](C)O)C(=O)N[C@@H](C)C(=O)N[C@@H]([C@@H](C)O)C(=O)N1)[C@@H](C)O)C(C)C)C(=O)N[C@@H](CC(C)C)C(=O)N1CCC[C@H]1C(=O)N1CCC[C@H]1C(=O)N[C@H](C(=O)N[C@@H](CC(N)=O)C(=O)N[C@H](C(=O)NCC(=O)N[C@@H](CO)C(=O)N[C@@H](CC(N)=O)C(=O)N[C@H](C(=O)N[C@@H](Cc1ccc(O)cc1)C(N)=O)[C@@H](C)O)C(C)C)[C@@H](C)O [pramlintide]
glucose tolerance in ipGTT ([4]; Experiment 8: 1000 μg/kg/d s.c. twice daily for 5 days, p=0.0497 vs vehicle HFD): improved glucose tolerance | highest non-effective dose ([4]; Experiment 8: s.c. twice daily for last 5 days, HFD 4 weeks): 200 μg/kg/d body weight | glucose tolerance in ipGTT ([4]; Experiment 8: the other concentrations (200, 40, 8, 1.6 μg/kg/d s.c.)): no significant effect on glucose homeostasis | glucose tolerance in ipGTT ([4]; Experiment 9: pramlintide 200 μg/kg/d s.c. last 5 days and/or mix 0.33 mg/kg oral 1 h before ipGTT, vs HFD vehicle): neither pramlintide alone at 200 μg/kg/d body weight (FIG. 9A) nor the mix at 0.33 mg/kg body weight (FIG. 9B) was able to improve glucose tolerance

Insulin: insulin (1 mg/kg) injected to activate the insulin signalling pathway
pAKT positive cells in the arcuate nucleus [5]: markedly increased pAKT positive cells
